Data reported in PubChem BioAssay (NCI).
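Five concentrations, 48 hours, 96-well plates. At the TGI there is no net growth.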

Columns and labels:
Assay in all cases: NCI tumour cell line growth inhibition, 48 h
[1] = system: SK-MEL-28 melanoma
[2] = system: HCC-2998 colon
[3] = system: NCI/ADR-RES ovarian
[4] = system: 786-0 renal
[5] = system: MDA-N
[6] = system: SNB-75 CNS
[7] = system: CCRF-CEM leukemia
[8] = system: U251 CNS
[9] = system: OVCAR-4 ovarian
[10] = system: IGROV1 ovarian
[11] = system: SK-OV-3 ovarian
[12] = system: HT29 colon
[13] = system: NCI-H460 lung
[14] = system: SK-MEL-5 melanoma
[15] = system: TK-10 renal
[16] = system: SK-MEL-2 melanoma
[17] = system: BT-549 breast
[18] = system: UACC-62 melanoma
[19] = system: NCI-H23 lung
[20] = system: OVCAR-3 ovarian
[21] = system: CAKI-1 renal
[22] = system: M14 melanoma
[23] = system: MDA-MB-231 breast
[24] = system: SW-620 colon
[25] = system: OVCAR-8 ovarian
[26] = system: HCT-116 colon
[27] = system: T-47D breast
[28] = system: K-562 leukemia
[29] = system: SF-295 CNS
[30] = system: SNB-19 CNS
[31] = system: LOX IMVI melanoma
[32] = system: A498 renal
[33] = system: DU-145 prostate
[34] = system: HS 578T breast
[35] = system: NCI-H226 lung
[36] = system: A549 NSCLC
[37] = system: SF-539 CNS
[38] = system: ACHN renal
[39] = system: RXF 393 renal
[40] = system: MALME-3M melanoma
[41] = system: EKVX NSCLC
[42] = system: KM12 colon
[43] = system: NCI-H522 lung
[44] = system: UACC-257 melanoma
[45] = system: UO-31 renal
[46] = system: HCT-15 colon
[47] = system: COLO 205 colon
[48] = system: MOLT-4 leukemia
[49] = system: HL-60(TB) leukemia
[50] = system: RPMI-8226 leukemia
[51] = system: OVCAR-5 ovarian
[52] = system: HOP-92 NSCLC
[53] = system: HOP-62 NSCLC
[54] = system: MCF7 breast
[55] = system: MDA-MB-435
[56] = system: SN12C renal
[57] = system: PC-3 prostate
[58] = system: SF-268 CNS
[59] = system: SR leukemia

CCOC(=O)C(C(=O)OCC)C1C=CCC2c3ccccc3COCC21 (centres undefined)
TGI [1]: > 100 µM
TGI [2]: > 100 µM
TGI [3]: 96.1 µM
TGI [4]: > 100 µM
TGI [5]: > 100 µM
TGI [6]: > 100 µM
TGI [7]: > 100 µM
TGI [8]: > 100 µM
TGI [9]: > 100 µM
TGI [10]: > 100 µM
TGI [11]: > 100 µM
TGI [12]: > 100 µM
TGI [13]: > 100 µM
TGI [14]: 36 µM
TGI [15]: > 100 µM
TGI [16]: > 100 µM
TGI [17]: > 100 µM
TGI [18]: > 100 µM
TGI [19]: > 100 µM
TGI [20]: > 100 µM
TGI [21]: > 100 µM
TGI [22]: > 100 µM
TGI [23]: > 100 µM
TGI [24]: > 100 µM
TGI [25]: > 100 µM
TGI [26]: > 100 µM
TGI [27]: > 100 µM
TGI [28]: > 100 µM
TGI [29]: > 100 µM
TGI [30]: > 100 µM
TGI [31]: > 100 µM
TGI [32]: > 100 µM
TGI [33]: > 100 µM
TGI [34]: > 100 µM
TGI [35]: > 100 µM
TGI [36]: > 100 µM
TGI [37]: > 100 µM
TGI [38]: > 100 µM
TGI [39]: > 100 µM
TGI [40]: > 100 µM
TGI [41]: > 100 µM
TGI [42]: > 100 µM
TGI [43]: 71.2 µM
TGI [44]: > 100 µM
TGI [45]: > 100 µM
TGI [46]: > 100 µM
TGI [47]: 48.9 µM
TGI [48]: > 100 µM
TGI [49]: 56.8 µM
TGI [50]: > 100 µM
TGI [51]: > 100 µM
TGI [52]: > 100 µM
TGI [53]: > 100 µM
TGI [54]: > 100 µM
TGI [55]: > 100 µM
TGI [56]: > 100 µM
TGI [57]: > 100 µM
TGI [58]: > 100 µM

COCCOc1nc(-c2ccccc2)nc2ccccc12
TGI [1]: > 100 µM
TGI [3]: > 100 µM
TGI [5]: > 100 µM
TGI [6]: > 100 µM
TGI [8]: > 100 µM
TGI [9]: > 100 µM
TGI [10]: > 100 µM
TGI [11]: > 100 µM
TGI [12]: > 100 µM
TGI [13]: 62 µM
TGI [14]: 88.3 µM
TGI [15]: > 100 µM
TGI [16]: > 100 µM
TGI [17]: > 100 µM
TGI [18]: > 100 µM
TGI [19]: > 100 µM
TGI [20]: > 100 µM
TGI [21]: > 100 µM
TGI [22]: 90 µM
TGI [23]: > 100 µM
TGI [24]: > 100 µM
TGI [25]: > 100 µM
TGI [26]: > 100 µM
TGI [27]: > 100 µM
TGI [28]: > 100 µM
TGI [29]: > 100 µM
TGI [59]: 60.9 µM
TGI [30]: > 100 µM
TGI [31]: > 100 µM
TGI [32]: 70 µM
TGI [33]: > 100 µM
TGI [34]: 73 µM
TGI [36]: > 100 µM
TGI [37]: > 100 µM
TGI [38]: > 100 µM
TGI [39]: 30.6 µM
TGI [40]: > 100 µM
TGI [41]: > 100 µM
TGI [42]: > 100 µM
TGI [43]: > 100 µM
TGI [44]: > 100 µM
TGI [45]: > 100 µM
TGI [46]: 43.3 µM
TGI [47]: > 100 µM
TGI [48]: 70.4 µM
TGI [49]: > 100 µM
TGI [50]: 45.5 µM
TGI [51]: > 100 µM
TGI [52]: 87.6 µM
TGI [53]: > 100 µM
TGI [54]: > 100 µM
TGI [55]: > 100 µM
TGI [56]: > 100 µM
TGI [57]: > 100 µM
TGI [58]: > 100 µM

NC(=O)CC(N)C(N)=O (centres undefined)
TGI [1]: > 100 µM
TGI [3]: > 100 µM
TGI [4]: > 100 µM
TGI [5]: > 100 µM
TGI [6]: > 100 µM
TGI [7]: > 100 µM
TGI [8]: > 100 µM
TGI [9]: > 100 µM
TGI [10]: > 100 µM
TGI [11]: > 100 µM
TGI [13]: > 100 µM
TGI [14]: > 100 µM
TGI [15]: > 100 µM
TGI [16]: > 100 µM
TGI [17]: > 100 µM
TGI [18]: > 100 µM
TGI [19]: > 100 µM
TGI [20]: > 100 µM
TGI [21]: > 100 µM
TGI [22]: > 100 µM
TGI [23]: > 100 µM
TGI [24]: > 100 µM
TGI [25]: > 100 µM
TGI [26]: > 100 µM
TGI [27]: > 100 µM
TGI [28]: > 100 µM
TGI [29]: > 100 µM
TGI [59]: > 100 µM
TGI [30]: > 100 µM
TGI [31]: > 100 µM
TGI [32]: > 100 µM
TGI [33]: > 100 µM
TGI [34]: > 100 µM
TGI [35]: > 100 µM
TGI [36]: > 100 µM
TGI [37]: > 100 µM
TGI [38]: > 100 µM
TGI [39]: > 100 µM
TGI [40]: > 100 µM
TGI [42]: > 100 µM
TGI [43]: > 100 µM
TGI [44]: > 100 µM
TGI [46]: > 100 µM
TGI [47]: > 100 µM
TGI [48]: > 100 µM
TGI [49]: > 100 µM
TGI [50]: > 100 µM
TGI [52]: > 100 µM
TGI [53]: > 100 µM
TGI [54]: > 100 µM
TGI [55]: > 100 µM
TGI [56]: > 100 µM
TGI [57]: > 100 µM

C/C(=N\Nc1nc2ccccc2o1)c1ccc2ccccc2n1
TGI [1]: > 100 µM
TGI [3]: 26.5 µM
TGI [4]: 45.7 µM
TGI [5]: > 100 µM
TGI [6]: 28 µM
TGI [7]: 5.77 µM
TGI [8]: 87.2 µM
TGI [9]: 5.59 µM
TGI [10]: 5.32 µM
TGI [11]: > 100 µM
TGI [12]: 95.9 µM
TGI [13]: 30.6 µM
TGI [14]: 14.3 µM
TGI [15]: 68.5 µM
TGI [16]: 15.2 µM
TGI [17]: > 100 µM
TGI [18]: 44.4 µM
TGI [19]: 70.7 µM
TGI [20]: 3.03 µM
TGI [21]: 3.93 µM
TGI [22]: > 100 µM
TGI [23]: > 100 µM
TGI [24]: > 100 µM
TGI [25]: 63.5 µM
TGI [26]: 20.1 µM
TGI [27]: 3.87 µM
TGI [28]: > 100 µM
TGI [29]: 56.5 µM
TGI [59]: 3.72 µM
TGI [30]: > 100 µM
TGI [31]: > 100 µM
TGI [32]: 8.64 µM
TGI [33]: 37.3 µM
TGI [34]: > 100 µM
TGI [36]: > 100 µM
TGI [37]: > 100 µM
TGI [38]: 10.6 µM
TGI [39]: 57.5 µM
TGI [40]: 52.5 µM
TGI [41]: 9.23 µM
TGI [42]: > 100 µM
TGI [43]: 5.83 µM
TGI [44]: > 100 µM
TGI [45]: 14.4 µM
TGI [46]: 59.9 µM
TGI [47]: > 100 µM
TGI [48]: > 100 µM
TGI [49]: 6.47 µM
TGI [50]: 6.41 µM
TGI [51]: > 100 µM
TGI [53]: 58.7 µM
TGI [54]: > 100 µM
TGI [55]: > 100 µM
TGI [56]: 56.8 µM
TGI [57]: 4.94 µM
TGI [58]: 49.2 µM

S=C1Nc2cnc3ccccc3c2SC1c1ccccc1 (centres undefined)
TGI [1]: > 100 µM
TGI [3]: > 100 µM
TGI [4]: > 100 µM
TGI [5]: > 100 µM
TGI [6]: > 100 µM
TGI [8]: > 100 µM
TGI [9]: > 100 µM
TGI [10]: > 100 µM
TGI [11]: > 100 µM
TGI [12]: > 100 µM
TGI [13]: > 100 µM
TGI [14]: > 100 µM
TGI [15]: > 100 µM
TGI [17]: > 100 µM
TGI [18]: > 100 µM
TGI [19]: > 100 µM
TGI [20]: > 100 µM
TGI [21]: > 100 µM
TGI [22]: > 100 µM
TGI [23]: > 100 µM
TGI [25]: > 100 µM
TGI [26]: > 100 µM
TGI [27]: > 100 µM
TGI [28]: > 100 µM
TGI [29]: > 100 µM
TGI [59]: > 100 µM
TGI [30]: > 100 µM
TGI [31]: > 100 µM
TGI [33]: > 100 µM
TGI [34]: > 100 µM
TGI [35]: > 100 µM
TGI [36]: > 100 µM
TGI [38]: > 100 µM
TGI [39]: 99.4 µM
TGI [40]: > 100 µM
TGI [41]: > 100 µM
TGI [42]: > 100 µM
TGI [43]: > 100 µM
TGI [44]: > 100 µM
TGI [45]: > 100 µM
TGI [46]: > 100 µM
TGI [47]: > 100 µM
TGI [48]: > 100 µM
TGI [49]: > 100 µM
TGI [50]: > 100 µM
TGI [51]: > 100 µM
TGI [53]: > 100 µM
TGI [54]: > 100 µM
TGI [55]: > 100 µM
TGI [56]: > 100 µM
TGI [57]: > 100 µM
TGI [58]: > 100 µM
